From ChEMBL document CHEMBL5727929, “CXCR4 inhibitors and uses thereof” (2020)

Assay: Binding Inhibition Assay: Jurkat cells expressing CXCR4 were washed once with assay buffer (Hanks' balanced salt solution with 20 mM HEPES buffer and 0.2% bovine serum albumin, pH 7.4) and then incubated for 15 min at room temperature with the test compounds diluted in assay buffer at dose-dependent concentrations. Subsequently, CXCL12-AF647 (25 ng/mL) was added to the compound-incubated cells. The cells were incubated for 30 min at room temperature. Thereafter, the cells were washed twice in assay buffer, fixed in 1% paraformaldehyde in PBS, and analyzed on the FL4 channel of a FACSCalibur flow cytometer equipped with a 635-nm red diode lase.

IC50: 0.01 to 100 nM
Structure (SMILES): CC[C@H](O)c1c([C@H]2CCC[C@@H](c3ncccc3C)N2C)nc2cccc(N3CCN(C)CC3)n12
